Measured values from ChEMBL document CHEMBL5465560, “Selectivity Literature for EUbOPEN Chemogenomic Library” (2024).

Legend:
[1] = test system: ALK tyrosine kinase receptor (Homo sapiens), Q9UM73 [L1196M]; test: (§1) Selectivity interaction (KinomeScan (DiscoverX)) EUB0000229b ALK; conditions: at 1 µM
[2] = test system: ALK tyrosine kinase receptor (Homo sapiens), Q9UM73 [C1156Y]; test: as §1; conditions: at 1 µM
[3] = biological target: T1, Inhibitor of nuclear factor kappa-B kinase subunit alpha (Homo sapiens) (UniProt O15111); test: Selectivity interaction (KinomeScan (DiscoverX)) EUB0000045b CHUK
T1 sequence (whole entry): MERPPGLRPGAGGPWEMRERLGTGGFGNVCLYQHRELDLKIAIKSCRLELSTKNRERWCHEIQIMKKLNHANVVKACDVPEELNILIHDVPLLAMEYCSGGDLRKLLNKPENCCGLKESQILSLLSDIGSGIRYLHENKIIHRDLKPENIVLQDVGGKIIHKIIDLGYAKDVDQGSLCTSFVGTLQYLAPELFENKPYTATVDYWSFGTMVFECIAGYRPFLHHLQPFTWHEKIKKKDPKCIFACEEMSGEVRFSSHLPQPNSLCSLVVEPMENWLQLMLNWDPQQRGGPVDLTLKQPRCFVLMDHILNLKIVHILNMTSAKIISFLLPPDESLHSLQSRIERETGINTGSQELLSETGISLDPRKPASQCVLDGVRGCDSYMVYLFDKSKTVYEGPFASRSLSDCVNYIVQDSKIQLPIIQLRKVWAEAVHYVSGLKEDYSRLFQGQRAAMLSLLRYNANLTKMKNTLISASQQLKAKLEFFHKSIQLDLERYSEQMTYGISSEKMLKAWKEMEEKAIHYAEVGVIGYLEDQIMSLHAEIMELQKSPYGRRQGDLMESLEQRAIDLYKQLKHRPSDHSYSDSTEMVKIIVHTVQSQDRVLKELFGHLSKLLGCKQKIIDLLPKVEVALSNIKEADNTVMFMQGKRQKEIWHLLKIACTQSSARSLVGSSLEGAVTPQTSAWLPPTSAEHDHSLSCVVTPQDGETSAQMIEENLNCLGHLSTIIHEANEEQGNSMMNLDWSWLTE

[4] = biological target: T1, Inhibitor of nuclear factor kappa-B kinase subunit alpha (Homo sapiens); test: Selectivity interaction (Adapta Assay) EUB0001632a CHUK; conditions: at 10 µM
[5] = biological target: Histamine H2 receptor (Homo sapiens) (UniProt P25021); test: Selectivity interaction (Eurofins CEREP Diversity Profile (receptors and ion channels)) EUB0000279b HRH2; conditions: at 10 µM
Chain of Histamine H2 receptor (Homo sapiens) (P25021 whole entry): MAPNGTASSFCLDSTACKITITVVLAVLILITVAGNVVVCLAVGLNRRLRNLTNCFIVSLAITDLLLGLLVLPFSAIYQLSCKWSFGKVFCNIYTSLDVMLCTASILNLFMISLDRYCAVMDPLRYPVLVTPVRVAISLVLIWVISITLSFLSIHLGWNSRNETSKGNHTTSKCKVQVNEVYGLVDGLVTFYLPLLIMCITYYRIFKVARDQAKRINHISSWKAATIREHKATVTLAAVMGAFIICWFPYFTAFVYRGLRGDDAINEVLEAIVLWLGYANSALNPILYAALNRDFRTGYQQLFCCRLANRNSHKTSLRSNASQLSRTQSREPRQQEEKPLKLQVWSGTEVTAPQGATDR

[6] = biological target: T2, NUAK family SNF1-like kinase 1 (Homo sapiens) (UniProt O60285); test: Selectivity interaction (Upstate Kinase Profiler service (Millipore)) EUB0000056c NUAK1; conditions: at 1 µM
T2 sequence (whole entry): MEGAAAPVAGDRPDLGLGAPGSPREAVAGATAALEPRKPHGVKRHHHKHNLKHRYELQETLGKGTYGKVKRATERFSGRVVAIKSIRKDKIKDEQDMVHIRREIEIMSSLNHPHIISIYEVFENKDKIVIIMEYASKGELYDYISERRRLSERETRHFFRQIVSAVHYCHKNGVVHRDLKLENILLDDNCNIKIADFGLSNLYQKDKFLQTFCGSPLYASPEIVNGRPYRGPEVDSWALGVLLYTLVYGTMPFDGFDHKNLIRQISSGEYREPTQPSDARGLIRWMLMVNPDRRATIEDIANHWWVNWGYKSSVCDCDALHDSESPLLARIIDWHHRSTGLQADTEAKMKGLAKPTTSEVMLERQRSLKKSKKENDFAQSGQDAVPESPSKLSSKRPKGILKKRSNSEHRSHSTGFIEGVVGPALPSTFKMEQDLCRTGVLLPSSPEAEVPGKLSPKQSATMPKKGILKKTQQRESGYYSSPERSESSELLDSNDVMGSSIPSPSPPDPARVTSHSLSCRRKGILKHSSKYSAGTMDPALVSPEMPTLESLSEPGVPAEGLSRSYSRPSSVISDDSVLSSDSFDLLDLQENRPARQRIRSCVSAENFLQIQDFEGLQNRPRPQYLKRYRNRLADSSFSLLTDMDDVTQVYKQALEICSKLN

[7] = biological target: T3, cAMP-dependent protein kinase catalytic subunit PRKX (Homo sapiens) (UniProt P51817); test: Selectivity interaction (ProQinase) EUB0000171b PRKX
T3 sequence (whole entry): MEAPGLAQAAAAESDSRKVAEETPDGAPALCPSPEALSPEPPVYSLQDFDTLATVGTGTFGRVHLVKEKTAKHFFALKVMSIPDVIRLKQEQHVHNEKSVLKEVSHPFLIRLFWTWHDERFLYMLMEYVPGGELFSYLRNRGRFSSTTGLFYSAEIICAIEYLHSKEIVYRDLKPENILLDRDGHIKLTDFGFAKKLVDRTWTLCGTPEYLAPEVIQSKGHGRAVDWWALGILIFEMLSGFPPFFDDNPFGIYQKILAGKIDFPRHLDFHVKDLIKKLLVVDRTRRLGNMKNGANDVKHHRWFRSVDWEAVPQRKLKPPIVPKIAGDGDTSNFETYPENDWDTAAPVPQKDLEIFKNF

[8] = biological target: Serine/threonine-protein kinase Nek4 (Homo sapiens) (UniProt P51957); test: Selectivity interaction (Kinase panel (Eurofins)) EUB0001564a NEK4; conditions: at 1 µM
Chain of Serine/threonine-protein kinase Nek4 (Homo sapiens) (P51957 whole entry, looked up): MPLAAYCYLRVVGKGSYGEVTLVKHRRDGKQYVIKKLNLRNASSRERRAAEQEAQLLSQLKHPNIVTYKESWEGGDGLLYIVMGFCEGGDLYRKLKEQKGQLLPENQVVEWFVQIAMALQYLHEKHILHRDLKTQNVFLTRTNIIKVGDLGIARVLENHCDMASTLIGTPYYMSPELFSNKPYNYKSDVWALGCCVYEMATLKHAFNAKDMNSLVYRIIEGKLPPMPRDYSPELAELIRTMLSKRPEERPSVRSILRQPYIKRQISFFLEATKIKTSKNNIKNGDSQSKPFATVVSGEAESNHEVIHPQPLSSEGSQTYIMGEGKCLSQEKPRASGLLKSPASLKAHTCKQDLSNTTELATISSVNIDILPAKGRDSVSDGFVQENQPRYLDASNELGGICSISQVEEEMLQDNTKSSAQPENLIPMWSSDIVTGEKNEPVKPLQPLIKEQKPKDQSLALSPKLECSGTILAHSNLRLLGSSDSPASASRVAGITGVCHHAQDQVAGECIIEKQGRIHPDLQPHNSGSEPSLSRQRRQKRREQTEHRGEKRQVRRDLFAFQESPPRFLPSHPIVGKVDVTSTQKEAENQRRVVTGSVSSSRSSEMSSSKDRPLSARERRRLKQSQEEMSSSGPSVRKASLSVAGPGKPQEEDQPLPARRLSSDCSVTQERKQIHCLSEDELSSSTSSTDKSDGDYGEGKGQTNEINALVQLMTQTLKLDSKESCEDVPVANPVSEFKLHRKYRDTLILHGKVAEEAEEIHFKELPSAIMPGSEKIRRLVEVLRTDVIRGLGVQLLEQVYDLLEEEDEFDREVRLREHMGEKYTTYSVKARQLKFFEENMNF

[9] = biological target: Leucine-rich repeat serine/threonine-protein kinase 2 (Homo sapiens, UniProt Q5S007); test: (§2) Selectivity interaction (KinomeScan (DiscoverX)) EUB0000607a LRRK2; conditions: at 10 µM
[10] = test system: Leucine-rich repeat serine/threonine-protein kinase 2 (Homo sapiens), Q5S007 [G2019S]; test: as §2; conditions: at 10 µM
[11] = biological target: Dual specificity protein kinase CLK3 (Homo sapiens, UniProt P49761); test: Selectivity interaction (Kinase panel (DSF assay)) EUB0001558a CLK3
Chain of Dual specificity protein kinase CLK3 (P49761 whole entry, looked up): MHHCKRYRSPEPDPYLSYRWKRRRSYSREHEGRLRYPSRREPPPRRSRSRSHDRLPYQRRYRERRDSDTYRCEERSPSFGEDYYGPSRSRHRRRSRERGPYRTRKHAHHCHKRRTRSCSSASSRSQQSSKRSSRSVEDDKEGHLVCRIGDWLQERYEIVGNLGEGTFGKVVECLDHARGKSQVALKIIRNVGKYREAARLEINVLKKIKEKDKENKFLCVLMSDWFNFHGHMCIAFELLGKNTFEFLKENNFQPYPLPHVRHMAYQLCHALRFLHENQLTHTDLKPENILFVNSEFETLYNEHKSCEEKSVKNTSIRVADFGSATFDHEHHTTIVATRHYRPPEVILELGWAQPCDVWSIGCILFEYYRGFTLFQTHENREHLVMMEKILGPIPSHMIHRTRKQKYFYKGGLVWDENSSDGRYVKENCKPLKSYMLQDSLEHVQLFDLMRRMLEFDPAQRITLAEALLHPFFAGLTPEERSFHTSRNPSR

[12] = biological target: G protein-coupled receptor kinase 4 (Homo sapiens) (UniProt P32298); test: Selectivity interaction (KinomeScan (DiscoverX)) EUB0000655a GRK4; conditions: at 10 µM
Chain of G protein-coupled receptor kinase 4 (Homo sapiens) (P32298 whole entry, looked up): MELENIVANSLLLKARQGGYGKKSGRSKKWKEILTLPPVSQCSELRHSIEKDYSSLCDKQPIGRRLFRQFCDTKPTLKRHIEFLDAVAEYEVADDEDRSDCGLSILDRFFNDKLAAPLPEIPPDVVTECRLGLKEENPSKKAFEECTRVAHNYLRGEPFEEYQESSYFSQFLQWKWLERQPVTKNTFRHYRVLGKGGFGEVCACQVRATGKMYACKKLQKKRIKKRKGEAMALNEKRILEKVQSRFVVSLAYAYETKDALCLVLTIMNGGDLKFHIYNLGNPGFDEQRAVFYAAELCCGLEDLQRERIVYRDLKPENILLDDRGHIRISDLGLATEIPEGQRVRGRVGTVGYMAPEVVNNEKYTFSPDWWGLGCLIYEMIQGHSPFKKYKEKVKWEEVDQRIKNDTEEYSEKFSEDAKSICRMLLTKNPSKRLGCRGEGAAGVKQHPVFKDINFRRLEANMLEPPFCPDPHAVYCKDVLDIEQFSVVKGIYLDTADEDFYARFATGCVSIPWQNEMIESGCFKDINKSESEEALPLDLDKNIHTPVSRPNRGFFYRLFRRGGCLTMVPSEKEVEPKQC

Chain of ALK tyrosine kinase receptor (Homo sapiens), Q9UM73 [L1196M] (Q9UM73 whole entry L1196M, looked up): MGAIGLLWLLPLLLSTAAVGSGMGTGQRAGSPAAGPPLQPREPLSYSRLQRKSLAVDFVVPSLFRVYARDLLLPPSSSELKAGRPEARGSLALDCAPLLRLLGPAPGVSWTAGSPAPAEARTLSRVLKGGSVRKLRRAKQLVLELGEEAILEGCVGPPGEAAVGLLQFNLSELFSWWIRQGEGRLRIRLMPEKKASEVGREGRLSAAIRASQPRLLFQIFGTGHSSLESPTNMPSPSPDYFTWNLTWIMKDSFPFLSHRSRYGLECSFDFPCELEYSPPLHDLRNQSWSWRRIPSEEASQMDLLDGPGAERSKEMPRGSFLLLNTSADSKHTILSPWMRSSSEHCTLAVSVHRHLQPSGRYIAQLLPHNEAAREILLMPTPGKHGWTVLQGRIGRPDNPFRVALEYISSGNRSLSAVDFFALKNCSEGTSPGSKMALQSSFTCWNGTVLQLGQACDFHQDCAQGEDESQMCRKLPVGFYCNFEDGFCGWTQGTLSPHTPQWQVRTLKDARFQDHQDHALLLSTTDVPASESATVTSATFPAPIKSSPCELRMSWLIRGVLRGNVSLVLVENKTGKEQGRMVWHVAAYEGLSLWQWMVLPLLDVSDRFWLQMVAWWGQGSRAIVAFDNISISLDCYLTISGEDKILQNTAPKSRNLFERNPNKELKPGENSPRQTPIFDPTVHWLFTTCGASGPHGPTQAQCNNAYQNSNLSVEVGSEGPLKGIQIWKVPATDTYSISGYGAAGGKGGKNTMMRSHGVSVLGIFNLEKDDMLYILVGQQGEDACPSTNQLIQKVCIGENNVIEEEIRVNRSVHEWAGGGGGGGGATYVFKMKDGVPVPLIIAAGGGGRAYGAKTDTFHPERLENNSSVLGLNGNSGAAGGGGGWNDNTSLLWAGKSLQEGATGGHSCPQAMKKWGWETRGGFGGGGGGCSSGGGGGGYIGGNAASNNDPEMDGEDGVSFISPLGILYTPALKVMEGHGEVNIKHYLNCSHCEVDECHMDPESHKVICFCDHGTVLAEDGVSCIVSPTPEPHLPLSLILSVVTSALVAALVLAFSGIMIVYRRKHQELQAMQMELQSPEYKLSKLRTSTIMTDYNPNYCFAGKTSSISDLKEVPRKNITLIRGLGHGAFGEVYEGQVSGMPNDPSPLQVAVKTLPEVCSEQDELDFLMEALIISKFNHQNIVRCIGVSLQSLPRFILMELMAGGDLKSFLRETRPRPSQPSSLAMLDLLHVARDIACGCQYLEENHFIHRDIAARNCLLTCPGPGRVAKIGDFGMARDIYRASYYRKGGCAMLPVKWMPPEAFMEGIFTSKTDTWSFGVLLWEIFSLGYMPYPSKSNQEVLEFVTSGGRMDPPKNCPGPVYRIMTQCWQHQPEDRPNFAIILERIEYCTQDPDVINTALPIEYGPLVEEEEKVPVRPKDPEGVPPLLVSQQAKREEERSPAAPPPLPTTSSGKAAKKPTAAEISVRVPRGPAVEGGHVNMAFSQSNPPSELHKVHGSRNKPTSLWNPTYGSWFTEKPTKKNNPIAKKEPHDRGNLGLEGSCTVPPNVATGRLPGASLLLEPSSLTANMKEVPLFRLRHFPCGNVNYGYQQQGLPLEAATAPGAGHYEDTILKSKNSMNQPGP
Chain of ALK tyrosine kinase receptor (Homo sapiens), Q9UM73 [C1156Y] (Q9UM73 whole entry C1156Y, looked up): as the sequence (Q9UM73 whole entry L1196M, looked up) above, with C1156Y, M1196L counted along it

Work on `COc1cc(N(C)c2ccnc3ccc(C(F)(F)F)cc23)cc(OC)c1OC` yielded a % binding [1] of 89% and a % binding [2] of 83%.

`C=CC(=O)Nc1cc(-n2c(=O)ccc3cnc4ccc(-c5ccc(NS(C)(=O)=O)cc5)cc4c32)ccc1C` gave a % of control ([3]; at 1 µM) of 100% and a % of control ([3]; at 10 µM) of 100%.

With `Cn1cc(-n2cnc3c(NCc4nc5cc(Cl)c(Cl)cc5[nH]4)nc(N4CCOCC4)nc32)cn1` the % of inhibition [4] was 13.7%.

`CC(=O)c1cc(-c2ccccc2OCC2CC2)c2ncccn12` showed a % of control [5] of 115%.

For `Cc1ccc(-c2ccc3c(ccc4sc5c(c43)NC[C@@H](C)NC5=O)n2)cn1`, the % of inhibition [6] was 35%.

Compound `C=CC(=O)Nc1cccc(C(=O)Nc2ccc(Nc3cc(-c4[nH]c(SC)nc4C)ccn3)cc2)c1` has a % of control ([7]; at 1 µM) of 86% and a % of control ([7]; at 5 µM) of 61%.

Compound `CC[C@@H](Nc1c(C#N)c(-c2ccc(-c3cccc(C)c3F)cc2)nc2cnccc12)C(=O)O` [BAY-091] has a % of inhibition [8] of 32.1%.

With `CNC(=O)Nc1ccc(-c2nc(N3CC4CCC(C3)O4)c3cnn(C4CCC5(CC4)OCCO5)c3n2)cc1` the % of control [9] was 82% and the % of control [10] was 65%.

In the case of `CC(C)(O)[C@H](F)CN1Cc2cc(NC(=O)c3cnn4cccnc34)c(N3CCOCC3)cc2C1=O`, the dTM [11] is reported as 1.3 K.

`CN(C)CCOc1ccc(-c2nc(-c3ccncc3)c(-c3ccc4c(c3)CC/C4=N\O)[nH]2)cc1` was tested, and the % of control [12] was 100%.
